In test [1] the target is T1, 11β-HSD1 (Homo sapiens, UniProt P28845). Nature of the test: Determination of 11β-HSD1 inhibition in HEK293 cells stably transfected with the 11β-HSD1 gene (cortisone to cortisol, LC/MS). Format: cell-based. Also on record: expressed in transfected cells; host or cells: HEK293 cells, stably transfected. The note with it: 10 µM compound, 300 nM cortisone, 2 hours, read-out: HSD1 % inh in cells (10 µM). The protocol: 11β-HSD1 activity was determined in cells that are incubated with substrate (cortisone) and product (cortisol) is determined by LC/MS. Cells are plated at 2 x 10^4 cells/well in a 96-well tissue culture microplate and incubated overnight at […] in 5% CO2 95% O2. Compounds to be tested are solubilized in 100% DMSO at 10 mM and serially diluted in water and 10% DMSO to final concentration 100 µM in 10% DMSO. 10 µl of each test dilution is dispensed into the well of a 96-well microplate (assay concentration of 10 µM). Low and high control wells contain 10 µl of 10% DMSO. A solution of DMEM is prepared containing 1% penicillin, 1% streptomycin and 300 nM cortisone. Medium is removed from cell assay plate and DMEM solution (100 µl) added to each well. Cells are incubated for 2 hours […] in 5% CO2 95% O2. Following incubation medium is removed from each well into 500 µl ethyl acetate mixed by vortex and incubated at room temperature for 5 minutes. A calibration curve of known concentrations of cortisol in assay medium is also set up and added to 500 µl ethyl acetate vortexed and incubated as above. The supernatant is removed to a 96 deep well plate and dried down under liquid nitrogen at 65°C. Each well is solubilised in 100 µl 70:30 H2O:ACN and removed to a 96 well v bottomed plate for LC/MS analysis.
T1 sequence (P28845 whole entry): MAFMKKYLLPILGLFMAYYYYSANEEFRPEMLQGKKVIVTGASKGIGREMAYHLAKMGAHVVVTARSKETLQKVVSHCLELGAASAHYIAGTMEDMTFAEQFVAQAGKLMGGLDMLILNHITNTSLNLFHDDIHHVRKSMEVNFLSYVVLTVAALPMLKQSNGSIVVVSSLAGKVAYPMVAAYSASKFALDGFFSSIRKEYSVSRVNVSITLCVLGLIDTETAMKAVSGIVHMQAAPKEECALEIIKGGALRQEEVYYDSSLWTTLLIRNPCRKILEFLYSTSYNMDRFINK

The next test concerns the target T2, 11β-HSD2 (Homo sapiens, UniProt P80365).
T2 construct: expressed in transfected cells; host or cells: HEK293 cells, stably transfected
T2 sequence (P80365 1-405): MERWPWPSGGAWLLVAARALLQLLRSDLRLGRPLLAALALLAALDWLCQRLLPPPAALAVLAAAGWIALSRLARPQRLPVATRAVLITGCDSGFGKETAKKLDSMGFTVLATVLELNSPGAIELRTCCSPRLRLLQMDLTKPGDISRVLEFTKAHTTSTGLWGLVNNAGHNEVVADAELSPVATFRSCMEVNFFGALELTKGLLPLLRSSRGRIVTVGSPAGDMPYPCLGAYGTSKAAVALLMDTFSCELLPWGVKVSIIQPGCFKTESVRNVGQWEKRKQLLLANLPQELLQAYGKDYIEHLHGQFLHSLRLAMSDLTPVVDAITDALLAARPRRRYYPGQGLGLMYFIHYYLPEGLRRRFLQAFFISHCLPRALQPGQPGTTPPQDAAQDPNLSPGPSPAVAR
Description: Determination of 11β-HSD2 inhibition in HEK293 cells stably transfected with the 11β-HSD2 gene (cortisol to cortisone, LC/MS). The format is cell-based. The note with it: assay concentrations of 10, 1, 0.1 µM, 2 hours. The protocol:
11β-HSD2 activity was determined in cells that are incubated with substrate (cortisol) and product (cortisone) is determined by LC/MS. Cells are plated at 2 x 10^4 cells/well in a 96-well tissue culture microplate and incubated overnight at @37° C in 5% CO2 95% O2. Compounds to be tested are solubilized in 100% DMSO at 10 mM and serially diluted in water and 10% DMSO to final concentration in 10% DMSO. 10 µl of each test dilution is dispensed into the well of a 96-well microplate (assay concentrations of 10, 1, 0.1 µM). Low and high control wells contain 10 µl of 10% DMSO. A solution of DMEM is prepared containing 1% penicillin, 1% streptomycin and 300 nM […]. Medium is removed from cell assay plate and DMEM solution (100 µl) added to each well. Cells are incubated for 2 hours @37° C in 5% CO2 95% O2. Following incubation medium is removed from each well into 500 µl ethyl acetate mixed by vortex and incubated at room temperature for 5 minutes. A calibration curve of known concentrations of cortisone in assay medium is also set up and added to 500 µl ethyl acetate vortexed and incubated as above. The supernatant is removed to a 96 deep well plate and dried down under liquid nitrogen at 65°C. Each well is solubilised in 100 µl 70:30 H2O:AC and removed to a 96 well v bottomed plate for LC/MS analysis.

In test [2] the target is T1, 11β-HSD1. Nature of the test: Determination of the 11β-HSD1 inhibition in Human Liver Microsomes (3H-cortisone to 3H-cortisol conversion, scintillation proximity assay). The note with it: mixed sex, 1 mM NADPH, 37°C, 30 minutes, read-out: HSD1 IC50 in HLM. Also on record: tissue Celsis In-vitro Technologies; host or cells: mixed sex human liver microsomes. Format: biochemical. The protocol: 11β-HSD1 activity was determined in mixed sex, Human Liver Microsomes (Celsis In-vitro Technologies) by measuring the conversion of ^3H-cortisone to ^3H-cortisol. Percentage inhibition was determined relative to a no inhibitor control. 5 µg of Human Liver microsomes was pre-incubated at 37°C for 10 minutes with inhibitor (assay concentrations of 1, 0.5, 0.1, 0.05, 0.01, 0.005, 0.001 and 0.0005 µM) and 1 mM NADPH in a final volume of 90 µL Krebs buffer. 10 µL of 200 nM ^3H-cortisone was then added followed by incubation for at 37°C for a further 30 minutes. The assay was terminated by rapid freezing on dry ice. ^3H-cortisone to ^3H-cortisol conversion was determined in 50 µL of the defrosted reaction by capturing liberated ^3H-cortisol on 100 µL 1:8000 dilution anti-cortisol (HyTest Ltd)-coated scintillation proximity assay beads (protein A-coated YSi, GE Healthcare). The percentages of inhibition at every tested concentration were analyzed using a non-linear regression curve fitting (variable slope) by using the software GraphPad Prism 5.0.

The structures appear in SMILES notation.

Broadly, the IC50 is the concentration that inhibits the measured activity by half. Turning to `O=C(C1CCCCC1)N1CC2[C@@H](C1)[C@H]1C=C[C@@H]2[C@@H]2C[C@H]12` (stereo partly drawn) [Example 1, cyclohexyl((4R,4aR,5aS,6S,6aS)-3,3a,4,4a,5,5a,6,6a-octahydro-4,6-etheno-cyclopropa[f]isoindol-2(1H)-yl)methanone], the inhibition at 10 µM on 11β-HSD1 [1] came out at 100%. In addition, the IC50 was at least 1000 nM on 11β-HSD2 and below 50 nM on 11β-HSD1 [2].

For the compound `O=C(C1CCCCC1)N1CC2C3CCC(C4CC34)C2C1` [Example 2, cyclohexyl((4R,4aR,5aS,6S,6aS)-octahydro-4,6-ethanocyclopropa[f]iso-indol-2(1H)-yl)methanone], at 11β-HSD1 [1], the inhibition at 10 µM turned out to be 100%. The IC50 was below 100 nM at 11β-HSD2 and below 50 nM on 11β-HSD1 [2].

For `CC(C)(C)C(=O)N1CC2[C@@H](C1)[C@H]1C=C[C@@H]2[C@@H]2C[C@H]12` (stereo partly drawn) [Example 7, 2,2-dimethyl-1-((4R,4aR,5aS,6S,6aS)-3,3a,4,4a,5,5a,6,6a-octahydro-4,6-ethenocyclopropa[f]isoindol-2(1H)-yl)propan-1-one], on 11β-HSD1 [1], the inhibition at 10 µM turned out to be 85%. Besides, the figures for the half-inhibitory concentration (IC50) at 11β-HSD2 and at 11β-HSD1 [2] were at least 1000 nM and 500 to 1000 nM, respectively.

As for `Nc1c(Cl)cc(C(=O)N2CC3[C@@H](C2)[C@H]2C=C[C@@H]3[C@@H]3C[C@H]23)cc1Cl` (stereo partly drawn) [Example 9, (4-amino-3,5-dichlorophenyl)((4R,4aR,5aS,6S,6aS)-3,3a,4,4a,5,5a,6,6a-octahydro-4,6-ethenocyclopropa[f]isoindol-2(1H)-yl)methanone], the inhibition at 10 µM on 11β-HSD1 [1] came to 77%. For the same compound, the 50% inhibitory concentration (IC50) was 100 to 1000 nM at 11β-HSD2 and below 50 nM at 11β-HSD1 [2].

`O=C(C1CC=CCC1)N1CC2[C@@H](C1)[C@H]1C=C[C@@H]2[C@@H]2C[C@H]12` (stereo partly drawn) [Example 10, cyclohex-3-en-1-yl((4R,4aR,5aS,6S,6aS)-3,3a,4,4a,5,5a,6,6a-octahydro-4,6-ethenocyclopropa[f]isoindol-2(1H)-yl)methanone]: on 11β-HSD1 [1], the inhibition at 10 µM is 41%. The 50% inhibitory concentration (IC50) against 11β-HSD2 was 100 to 1000 nM; at 11β-HSD1 [2] it was below 50 nM.

Regarding `N#Cc1ccc(N2CCN(c3ccc(C(=O)N4CC5[C@@H](C4)[C@H]4C=C[C@@H]5[C@@H]5C[C@H]45)cn3)CC2)cc1` (stereo partly drawn) [Example 15, 4-(4-(5-((4R,4aR,5aS,6S,6aS)-1,2,3,3a,4,4a,5,5a,6,6a-decahydro-4,6-ethenocyclopropa[f]isoindole-2-carbonyl)pyridin-2-yl)piperazin-1-yl)benzonitrile], the inhibition at 10 µM on 11β-HSD1 [1] was found to be 100%. In addition, the 50% inhibitory concentration (IC50) against 11β-HSD2 is at least 1000 nM; at 11β-HSD1 [2] it was 50 to 500 nM.
